Measured values reported in patent US20100190980A1, “PYRAZINAMIDE COMPOUND” (Taisho Pharmaceutical Co., Ltd, priority 2007, published 2010).

Experiments:
[1] = tested on: SD rats; assay: Blood Glucose Level-Lowering Effect in SD rats; type: in vivo, rat; conditions: oral, 0.5% methyl cellulose group = 100%
Experimental: The effect of the compound of the present invention to decrease blood glucose level was investigated by use of SD rats.
SD rats were raised by free-feeding. From the caudal vein of 8-week old […], blood was taken and centrifugally separated to obtain the plasma. A blood glucose level of the plasma was measured by glucose CII test Wako. The rats were divided into groups of 6 rats so as to have the same average blood glucose level. In an agent administration group, a compound suspended in a 0.5% aqueous methyl cellulose solution was orally administered to the rats; whereas, in a control group, a 0.5% aqueous methylcellulose solution was orally administered. At 30 minutes, 60 minutes, 120 minutes, 240 minutes, 360 minutes and 480 minutes after the administration, blood was taken from the caudal vein of each rat. The plasma was centrifugally recovered and a blood glucose level was measured by use of glucose CII test Wako. Furthermore, a plasma insulin concentration was measured by an ultrasensitive rat insulin measuring kit (Morinaga Institute of Biological Science, Inc.). The blood glucose levels at individual time points were plotted to obtain a graph showing a change of blood glucose level.
Regarding the blood glucose level of the 0.5% methyl cellulose administration group as 100%, the blood glucose level of SD rats administrated with Compound No. 2 was indicated. In a 3 mg/kg administration group, the blood glucose level was 59% at 1 hour, 71% at 2 hours and 76% at 4 hours. Whereas, in a 10 mg/kg administration group, the blood glucose level was 53% at 1 hour, 68% at 2 hours, and 75% at 4 hours.

[2] = biological target: T1, human liver GK (Homo sapiens, UniProt P35557); assay: GK Activation Test; type: biochemical; conditions: 4 mM 14C-labeled glucose; for EC50: concentration activating GK to 50% of the maximum activation value
T1 construct: GST (Glutathione S-transferase) (N); made in house; host or cells: Escherichia coli
T1 sequence (P35557 1-466 isoform P35557-2): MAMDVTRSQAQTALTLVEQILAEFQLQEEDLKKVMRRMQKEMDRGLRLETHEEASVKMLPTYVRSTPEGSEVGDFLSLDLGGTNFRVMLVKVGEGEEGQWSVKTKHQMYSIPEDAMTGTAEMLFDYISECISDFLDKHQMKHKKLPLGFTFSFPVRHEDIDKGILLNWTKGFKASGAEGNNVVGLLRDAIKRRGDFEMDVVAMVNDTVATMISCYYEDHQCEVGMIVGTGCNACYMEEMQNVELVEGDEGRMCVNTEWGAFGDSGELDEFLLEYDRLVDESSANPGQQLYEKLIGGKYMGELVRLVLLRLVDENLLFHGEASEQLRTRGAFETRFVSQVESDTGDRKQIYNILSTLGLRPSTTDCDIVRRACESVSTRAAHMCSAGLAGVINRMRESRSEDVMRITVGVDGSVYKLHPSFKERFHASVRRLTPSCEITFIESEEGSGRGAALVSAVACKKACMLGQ
Experimental: A GK activation by a test compound was tested by partially modifying the method of Irwin A. Rose et al. (J. Biol. Chem. 1964 January; 239: 12-7).
The enzyme source used in this assay was human liver GK, which was allowed to express by Escherichia coli as a fusion protein having GST (Glutathione S-transferase) added to the amino terminal and purified by Glutathione Sepharose 4B (Amersham Biosciences).
The test was performed by using flat-bottom 96-well plates (Sumitomo Bakelite Co., Ltd). To each of the wells of plates, a dimethyl sulfoxide (DMSO) solution of a test compound and DMSO serving as a control were added so as to obtain a final DMSO concentration of 1%. Furthermore, 25 mM Hepes-KOH (pH=7.1), 25 mM KCl, 2 mM MgCl2, 2 mM ATP, 4 mM ^14C-labeled glucose (Amersham Pharmacia) and 1 mM DTT (dithiothreitol) (these concentrations were final concentrations) were added. Finally, human liver GK was added so as to obtain 0.24 μg/well. The reaction was initiated and carried out at room temperature.
Twenty minutes later, AG1-X4 resin (BioRad), which was suspended with 25 mM Hepes-KOH (pH=7.1), was added and allowed to bind a reaction product, a labeled glucose-6-phosphate. The whole quantity was transferred to a multi-screen plate (Millipore) and the resin was washed with water. Thereafter, labeled glucose-6-phosphate bound to the resin was eluted with a 0.5 M NaCl solution. The activity of the labeled glucose-6-phosphate eluted was measured and used as an index of GK activity.
Regarding the GK activity of a control group in a well in which DMSO alone was added as 100%, the GK activity activated by the test compound to a maximum was indicated as the maximum activation value (Emax value). Furthermore, the concentration of a test compound required for activating GK activity to 50% of the maximum activation value was indicated as an EC50 value.

| Compound | EC50 [2] | also measured |
| --- | --- | --- |
| Cn1ccc(NC(=O)c2nc(Sc3nnc[nH]3)cnc2Sc2ccc(F)cc2)n1 [Compound No. 2, 3-[(4-fluorophenyl)sulfanyl]-N-(1-methyl-1H-pyrazol-3-yl)-6-(4H-1,2,4-triazol-3-ylsulfanyl)pyrazine-2-carboxamide] | 104 nM | blood glucose level ([1]; 3 mg/kg, at 1 hour): 59%; blood glucose level ([1]; 3 mg/kg, at 2 hours): 71%; blood glucose level ([1]; 3 mg/kg, at 4 hours): 76%; blood glucose level ([1]; 10 mg/kg, at 1 hour): 53%; blood glucose level ([1]; 10 mg/kg, at 2 hours): 68%; blood glucose level ([1]; 10 mg/kg, at 4 hours): 75% |
| Cn1ccc(NC(=O)c2nc(Sc3nnc[nH]3)cnc2SC2CCCCC2)n1 [Compound No. 5, 3-(cyclohexylsulfanyl)-N-(1-methyl-1H-pyrazol-3-yl)-6-(4H-1,2,4-triazol-3-ylsulfanyl)pyrazine-2-carboxamide] | 171 nM |  |
| Cn1ccc(NC(=O)c2nc(Sc3nnc[nH]3)cnc2Sc2ccncc2)n1 [Compound No. 24, N-(1-methyl-1H-pyrazol-3-yl)-3-(pyridin-4-ylsulfanyl)-6-(4H-1,2,4-triazol-3-ylsulfanyl)pyrazine-2-carboxamide] | 110 nM |  |
| O=C(NC1=NCCS1)c1nc(Sc2nnc[nH]2)cnc1Sc1ccc(F)cc1 [Compound No. 25, N-(4,5-dihydro-1,3-thiazol-2-yl)-3-[(4-fluorophenyl)sulfanyl]-6-(4H-1,2,4-triazol-3-ylsulfanyl)pyrazine-2-carboxamide] | 365 nM |  |
| O=C(Nc1cnccn1)c1nc(Sc2nnc[nH]2)cnc1Sc1ccc(F)cc1 [Compound No. 29, 3-[(4-fluorophenyl)sulfanyl]-N-(pyrazin-2-yl)-6-(4H-1,2,4-triazol-3-ylsulfanyl)pyrazine-2-carboxamide] | 89.5 nM |  |
| COCCn1ccc(NC(=O)c2nc(Sc3nnc(C)[nH]3)cnc2Sc2ccc(F)cc2)n1 [Compound No. 30, 3-[(4-fluorophenyl)sulfanyl]-N-[1-(2-methoxyethyl)-1H-pyrazol-3-yl]-6-[(5-methyl-4H-1,2,4-triazol-3-yl)sulfanyl]pyrazine-2-carboxamide] | 397 nM |  |
| O=C(O)c1ccc(NC(=O)c2nc(Sc3nnc[nH]3)cnc2Sc2ccc(F)cc2)nc1 [Compound No. 35, 6-[({3-[(4-fluorophenyl)sulfanyl]-6-(4H-1,2,4-triazol-3-ylsulfanyl)pyrazin-2-yl}carbonyl)amino]pyridine-3-carboxylic acid] | 72.4 nM |  |
| Cc1nnc(Sc2cnc(Sc3ccc(F)cc3)c(C(=O)Nc3ccn(C)n3)n2)[nH]1 [Compound No. 38, 3-[(4-fluorophenyl)sulfanyl]-N-(1-methyl-1H-pyrazol-3-yl)-6-[(5-methyl-4H-1,2,4-triazol-3-yl)sulfanyl]pyrazine-2-carboxamide] | 117 nM |  |
| Cn1ccc(NC(=O)c2nc(Sc3nncs3)cnc2Sc2ccc(F)cc2)n1 [Compound No. 41, 3-[(4-fluorophenyl)sulfanyl]-N-(1-methyl-1H-pyrazol-3-yl)-6-(1,3,4-thiadiazol-2-ylsulfanyl)pyrazine-2-carboxamide] | 311 nM |  |
| COc1ccc(Sc2ncc(Sc3nnc[nH]3)nc2C(=O)Nc2cnccn2)cc1 [Compound No. 46, 3-[(4-methoxyphenyl)sulfanyl]-N-pyrazin-2-yl-6-(4H-1,2,4-triazol-3-ylsulfanyl)pyrazine-2-carboxamide] | 59.4 nM |  |
| CSc1ccc(Sc2ncc(Sc3nnc(N)[nH]3)nc2C(=O)Nc2cnccn2)cc1 [Compound No. 51, 6-[(5-amino-4H-1,2,4-triazol-3-yl)sulfanyl]-3-{[4-(methylsulfanyl)phenyl]sulfanyl}-N-pyrazin-2-ylpyrazine-2-carboxamide] | 131 nM |  |
| Cc1nnc(Sc2cnc(Sc3ccc(S(C)(=O)=O)cc3)c(C(=O)Nc3ccn(C)n3)n2)[nH]1 [Compound No. 52, N-(1-methyl-1H-pyrazol-3-yl)-3-{[4-(methylsulfonyl)phenyl]sulfanyl}-6-[(5-methyl-4H-1,2,4-triazol-3-yl)sulfanyl]pyrazine-2-carboxamide] | 128 nM | Emax ([2]; GK activity of DMSO control = 100%, 2 mM ATP, read-out: Emax (maximum activation value)): 883% |
